According to paper PMC8480782, “Efficient Dimerization Disruption of Leishmania infantum Trypanothione Reductase by Triazole-phenyl-thiazoles” (Journal of Medicinal Chemistry, 2021):

Target: T1, human glutathione-disulfide reductase (hGR) (Homo sapiens, UniProt P00390)
T1 construct: HIS (vector pRSETA); made in house
T1 sequence (P00390 44-522): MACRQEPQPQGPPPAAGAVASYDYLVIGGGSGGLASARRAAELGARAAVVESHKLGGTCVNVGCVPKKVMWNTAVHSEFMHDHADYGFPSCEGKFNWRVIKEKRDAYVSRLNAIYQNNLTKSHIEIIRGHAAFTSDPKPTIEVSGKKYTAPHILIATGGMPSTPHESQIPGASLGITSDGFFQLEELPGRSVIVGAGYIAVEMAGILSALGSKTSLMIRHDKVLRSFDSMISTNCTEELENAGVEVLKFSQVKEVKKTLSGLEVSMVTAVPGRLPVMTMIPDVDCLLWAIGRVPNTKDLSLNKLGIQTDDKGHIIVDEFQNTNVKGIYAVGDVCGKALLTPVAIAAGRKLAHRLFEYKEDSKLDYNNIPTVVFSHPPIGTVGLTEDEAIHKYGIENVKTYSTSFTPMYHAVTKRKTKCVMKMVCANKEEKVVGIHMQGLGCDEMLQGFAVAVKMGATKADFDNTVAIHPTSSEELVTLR
Experiment: hGR oxidoreductase activity, DTNB-coupled assay
Assay type: biochemical
Conditions: not given
Excerpt: The DNA coding sequences for Homo sapiens GR, T. brucei TryR, and T. congolense TryR were polymerase chain reaction (PCR)-amplified and cloned in the pRSETA plasmid. The DNA coding for hGR (transcript variant 1; NCBI Reference Sequence: NM_000637.5) was purchased from GeneScript. Genomic DNA from T. congolense parasites was kindly provided by Dr. Stefan Magez (University of Vrije, Brussels). Genomic DNA from the T. brucei S16 cell line was kindly provided by José M. Pérez-Victoria. Instituto de Parasitología y Biomedicina “López—Neyra” CSIC. HIS-tagged recombinant T. brucei and T. congolense TryRs (TbTryR and TcoTryR, respectively) were purified from E. coli as already explained for LiTryR.
hGR oxidoreductase activity was determined spectrophotometrically using a DTNB-coupled assay. Briefly, reactions were carried out at 37 °C in 250 μL of HEPES buffer (pH 7.5, 40 mM) containing EDTA (1 mM), NADP^+, (60 μM), DTNB (150 μM), oxidized glutathione (50 μM), NADPH (300 μM), glycerol (0.02%), DMSO (1.75%), and recombinant hGR (7 nM). […] TNB concentration was obtained by multiplying the absorbance values by 100 (50 μM TNB generates 0.5 arbitrary units of absorbance at 412 nm). All of the assays were conducted in at least three independent experiments. Data were analyzed using a nonlinear regression model with GraFit 6 software (Erithacus, Horley, Surrey, U.K.).

**Q.** For `NCCCCc1cn(-c2ccc(-c3nc(-c4ccccc4)c(-c4ccccc4)s3)c(OCCN3CCNC3=O)c2)nn1.O=C(O)C(F)(F)F` [19a, 1-(2-(5-(4-(4-Ammoniobutyl)-1H-1,2,3-triazol-1-yl)-2-(4,5-diphenylthiazol-2-yl)phenoxy)ethyl)imidazolidin-2-one 2,2,2-Trifluoroacetate], which “inhibitory activity against hGR” value is on record?
**A.** none of these compounds showed any inhibitory activity

**Q.** For `NCCCCc1cn(-c2ccc(-c3nc(-c4ccccc4)cs3)c(OCCN3CCNC3=O)c2)nn1.O=C(O)C(F)(F)F` [12n], which “inhibitory activity against hGR” value is on record?
**A.** none of these compounds showed any inhibitory activity

**Q.** With `NCCCCc1cn(-c2ccc(-c3nc(CCc4ccc5c(c4)CCO5)cs3)c(OCCN3CCNC3=O)c2)nn1.O=C(O)C(F)(F)F` [12r] as the compound, how does the “inhibitory activity against hGR” value read?
**A.** none of these compounds showed any inhibitory activity

Test system: not listed separately
Experiment: Cytotoxicity in THP-1 monocyte-derived macrophages (LDH activity)
Assay type: cell-based, human
Conditions: human; 75 μM (maximum concentration assayed); read-out: Cell viability of amastigote-infected THP-1 monocyte-derived macrophages at 75 μM
In short: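 PMA-differentiated THP-1 macrophages, infected with GFP-expressing amastigotes, were treated 72 h at 37 °C in RPMI with 10% horse serum. After SDS lysis, LDH activity measured via lactate/NAD+/NBT formazan formation at 570 nm (Tris pH 8.9, 37 °C); CC50 by nonlinear regression.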

**Q.** With `NCCCCc1cn(-c2ccc(-c3nc(CCc4ccc(-c5ccccc5)cc4)cs3)c(OCCN3CCNC3=O)c2)nn1.O=C(O)C(F)(F)F` [12c, 1-(2-(2-(4-(2-([1,1′-Biphenyl]-4-yl)ethyl)thiazol-2-yl)-5-(4-(4-ammoniumbutyl)-1H-1,2,3-triazol-1-yl)phenoxy)ethyl)imidazolidin-2-one 2,2,2-Trifluoroacetate] as the compound, how does the viability at 72 h, 75 µM read?
**A.** 100%

**Q.** Which viability at 72 h, 75 µM does the source give for `NCCCc1cn(-c2ccc(-c3nc(CCc4ccc(-c5ccccc5)cc4)cs3)c(OCCN3CCNC3=O)c2)nn1.O=C(O)C(F)(F)F` [12i] here?
**A.** 100%

**Q.** With `NCCCCc1cn(-c2ccc(-c3nc(CCc4ccc5c(c4)CCCN5)cs3)c(OCCN3CCNC3=O)c2)nn1.O=C(O)C(F)(F)F.O=C(O)C(F)(F)F` [12q] as the compound, how does the viability at 72 h, 75 µM read?
**A.** 67%

**Q.** Which viability at 72 h, 75 µM does the source give for `NCCCCc1cn(-c2ccc(-c3nc(-c4ccc(Oc5ccccc5)cc4)c(-c4ccccc4)s3)c(OCCN3CCNC3=O)c2)nn1.O=C(O)C(F)(F)F` [19c, 1-(2-(5-(4-(4-Ammoniobutyl)-1H-1,2,3-triazol-1-yl)-2-(4-([4-phenyloxyphenyl]-1-yl)-5-phenylthiazol-2-yl)phenoxy)ethyl)imidazolidin-2-one 2,2,2-Trifluoroacetate] here?
**A.** 63%
